Broadly, the remaining activity is the signal under treatment as a percentage of the control signal.

The values that follow come from paper PMC6757289, “Design and Characterization of SGK3-PROTAC1, an Isoform Specific SGK3 Kinase PROTAC Degrader” (ACS Chemical Biology, 2019).

What all share (experiment): kinase profiling panel
Assay type in all cases: biochemical
Common to all, as to conditions: read-out: % Activity Remaining

In one test the target is T1, BRSK2 (Homo sapiens, UniProt Q8IWQ3).
T1 sequence (Q8IWQ3 1-736): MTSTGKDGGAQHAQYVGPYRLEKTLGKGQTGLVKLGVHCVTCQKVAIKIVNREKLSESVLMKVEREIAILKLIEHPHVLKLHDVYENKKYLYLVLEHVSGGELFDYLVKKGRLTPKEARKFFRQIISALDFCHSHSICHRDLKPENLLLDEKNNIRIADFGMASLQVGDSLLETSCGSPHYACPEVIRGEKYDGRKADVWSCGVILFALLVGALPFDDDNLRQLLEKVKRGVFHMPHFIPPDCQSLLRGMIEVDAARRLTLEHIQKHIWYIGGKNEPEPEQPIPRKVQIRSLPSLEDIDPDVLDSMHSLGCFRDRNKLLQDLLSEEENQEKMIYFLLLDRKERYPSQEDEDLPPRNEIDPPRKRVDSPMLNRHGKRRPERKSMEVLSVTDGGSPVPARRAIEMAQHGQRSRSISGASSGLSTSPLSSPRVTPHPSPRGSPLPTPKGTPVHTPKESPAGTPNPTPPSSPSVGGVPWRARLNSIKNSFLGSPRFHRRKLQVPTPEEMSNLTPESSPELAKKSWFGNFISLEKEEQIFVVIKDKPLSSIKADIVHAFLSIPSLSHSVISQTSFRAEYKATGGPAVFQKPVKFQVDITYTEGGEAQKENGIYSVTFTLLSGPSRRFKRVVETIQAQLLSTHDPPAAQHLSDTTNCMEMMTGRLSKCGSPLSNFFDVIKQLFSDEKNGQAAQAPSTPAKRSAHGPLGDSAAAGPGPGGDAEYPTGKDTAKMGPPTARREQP
An excerpt: (§1) Protein kinase profiling against a Dundee panel of 140 protein kinases was undertaken at the International Centre for Protein Kinase Profiling. The result for each kinase was presented as a mean kinase activity of the reaction taken in triplicate relative to a control sample treated with DMSO. Assay conditions and abbreviations are available at http://www.kinase-screen.mrc.ac.uk.

The target of another test is ERK2 (Homo sapiens, UniProt P28482).
Source text: as §1

Another test addresses T2, MST2 (Homo sapiens, UniProt Q13188).
T2 sequence (Q13188 1-491): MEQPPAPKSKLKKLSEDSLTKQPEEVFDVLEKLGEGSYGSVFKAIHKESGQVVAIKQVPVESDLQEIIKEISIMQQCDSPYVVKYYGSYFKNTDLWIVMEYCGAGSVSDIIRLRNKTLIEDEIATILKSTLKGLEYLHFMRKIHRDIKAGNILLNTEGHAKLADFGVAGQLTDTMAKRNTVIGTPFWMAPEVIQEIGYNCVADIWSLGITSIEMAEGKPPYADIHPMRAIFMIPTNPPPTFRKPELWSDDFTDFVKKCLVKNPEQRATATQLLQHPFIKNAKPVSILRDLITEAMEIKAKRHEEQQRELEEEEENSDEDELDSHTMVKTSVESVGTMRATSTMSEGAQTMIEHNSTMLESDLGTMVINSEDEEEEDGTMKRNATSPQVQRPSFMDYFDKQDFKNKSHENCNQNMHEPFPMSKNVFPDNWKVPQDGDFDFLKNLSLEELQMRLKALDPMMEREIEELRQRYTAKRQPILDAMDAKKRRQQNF
Source text: as §1

The target of another test is PKB alpha (Homo sapiens, UniProt P31749).
Source text: as §1

A further test has as its target T3, PKD1 (Homo sapiens, UniProt Q15139).
T3 sequence (Q15139 1-912): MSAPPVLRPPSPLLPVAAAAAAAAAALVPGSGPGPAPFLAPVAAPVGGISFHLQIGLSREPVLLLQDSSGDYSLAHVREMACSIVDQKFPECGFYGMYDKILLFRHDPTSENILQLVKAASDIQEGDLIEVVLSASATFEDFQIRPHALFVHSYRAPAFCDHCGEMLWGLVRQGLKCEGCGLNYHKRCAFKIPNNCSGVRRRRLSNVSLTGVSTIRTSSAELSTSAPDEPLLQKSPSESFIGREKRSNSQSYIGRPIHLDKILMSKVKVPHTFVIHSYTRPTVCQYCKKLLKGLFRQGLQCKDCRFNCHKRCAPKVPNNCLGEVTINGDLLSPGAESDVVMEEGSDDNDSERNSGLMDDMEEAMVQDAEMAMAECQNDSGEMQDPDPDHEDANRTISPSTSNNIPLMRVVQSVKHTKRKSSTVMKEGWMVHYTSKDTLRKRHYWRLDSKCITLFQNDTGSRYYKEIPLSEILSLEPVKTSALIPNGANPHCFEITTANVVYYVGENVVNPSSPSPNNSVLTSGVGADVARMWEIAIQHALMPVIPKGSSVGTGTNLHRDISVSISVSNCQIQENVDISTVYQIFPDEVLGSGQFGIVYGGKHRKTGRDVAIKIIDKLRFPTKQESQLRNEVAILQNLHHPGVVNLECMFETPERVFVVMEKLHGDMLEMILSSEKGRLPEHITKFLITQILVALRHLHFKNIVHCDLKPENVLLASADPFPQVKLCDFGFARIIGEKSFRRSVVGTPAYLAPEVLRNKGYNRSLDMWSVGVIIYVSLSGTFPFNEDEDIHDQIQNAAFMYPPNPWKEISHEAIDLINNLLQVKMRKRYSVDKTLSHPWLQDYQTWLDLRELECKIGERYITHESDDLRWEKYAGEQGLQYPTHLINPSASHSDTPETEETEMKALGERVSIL
Source text: as §1

The target of another test is SIK2 (Homo sapiens, UniProt Q9H0K1).
Source text: as §1

A further test has as its target TESK1 (Homo sapiens, UniProt Q15569).
Source text: as §1

Read-outs that look alike come from different tables or passages of the source.

Sequence of TESK1 (Q15569 whole entry): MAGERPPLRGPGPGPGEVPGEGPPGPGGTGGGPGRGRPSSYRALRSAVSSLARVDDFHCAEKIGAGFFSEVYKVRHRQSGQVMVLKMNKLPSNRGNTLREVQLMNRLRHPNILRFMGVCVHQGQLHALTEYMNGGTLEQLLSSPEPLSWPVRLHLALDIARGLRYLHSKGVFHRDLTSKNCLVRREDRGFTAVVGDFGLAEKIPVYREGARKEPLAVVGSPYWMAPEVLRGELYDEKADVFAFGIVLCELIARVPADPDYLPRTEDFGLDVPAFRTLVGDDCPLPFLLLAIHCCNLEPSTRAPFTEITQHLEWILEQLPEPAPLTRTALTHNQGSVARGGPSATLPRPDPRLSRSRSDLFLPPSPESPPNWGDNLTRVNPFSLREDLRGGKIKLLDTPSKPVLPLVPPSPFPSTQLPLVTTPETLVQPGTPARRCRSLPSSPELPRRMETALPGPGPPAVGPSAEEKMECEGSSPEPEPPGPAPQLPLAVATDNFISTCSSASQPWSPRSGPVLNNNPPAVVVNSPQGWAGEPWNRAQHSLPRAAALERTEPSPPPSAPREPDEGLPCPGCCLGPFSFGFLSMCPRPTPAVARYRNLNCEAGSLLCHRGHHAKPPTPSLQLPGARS
Sequence of PKB alpha (P31749 whole entry): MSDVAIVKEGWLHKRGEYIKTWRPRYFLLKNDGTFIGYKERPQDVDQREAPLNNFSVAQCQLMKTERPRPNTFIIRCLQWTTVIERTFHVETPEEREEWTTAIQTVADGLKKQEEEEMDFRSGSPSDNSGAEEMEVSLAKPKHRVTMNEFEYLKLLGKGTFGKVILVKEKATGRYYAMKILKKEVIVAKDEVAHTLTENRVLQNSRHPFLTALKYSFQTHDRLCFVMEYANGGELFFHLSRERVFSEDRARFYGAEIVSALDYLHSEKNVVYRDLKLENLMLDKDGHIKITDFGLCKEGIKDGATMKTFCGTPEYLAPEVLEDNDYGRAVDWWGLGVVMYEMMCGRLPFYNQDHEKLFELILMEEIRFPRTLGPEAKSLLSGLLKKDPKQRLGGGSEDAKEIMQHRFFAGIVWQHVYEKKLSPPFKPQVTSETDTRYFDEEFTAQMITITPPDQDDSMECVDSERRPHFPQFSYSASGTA
Sequence of SIK2 (Q9H0K1 whole entry): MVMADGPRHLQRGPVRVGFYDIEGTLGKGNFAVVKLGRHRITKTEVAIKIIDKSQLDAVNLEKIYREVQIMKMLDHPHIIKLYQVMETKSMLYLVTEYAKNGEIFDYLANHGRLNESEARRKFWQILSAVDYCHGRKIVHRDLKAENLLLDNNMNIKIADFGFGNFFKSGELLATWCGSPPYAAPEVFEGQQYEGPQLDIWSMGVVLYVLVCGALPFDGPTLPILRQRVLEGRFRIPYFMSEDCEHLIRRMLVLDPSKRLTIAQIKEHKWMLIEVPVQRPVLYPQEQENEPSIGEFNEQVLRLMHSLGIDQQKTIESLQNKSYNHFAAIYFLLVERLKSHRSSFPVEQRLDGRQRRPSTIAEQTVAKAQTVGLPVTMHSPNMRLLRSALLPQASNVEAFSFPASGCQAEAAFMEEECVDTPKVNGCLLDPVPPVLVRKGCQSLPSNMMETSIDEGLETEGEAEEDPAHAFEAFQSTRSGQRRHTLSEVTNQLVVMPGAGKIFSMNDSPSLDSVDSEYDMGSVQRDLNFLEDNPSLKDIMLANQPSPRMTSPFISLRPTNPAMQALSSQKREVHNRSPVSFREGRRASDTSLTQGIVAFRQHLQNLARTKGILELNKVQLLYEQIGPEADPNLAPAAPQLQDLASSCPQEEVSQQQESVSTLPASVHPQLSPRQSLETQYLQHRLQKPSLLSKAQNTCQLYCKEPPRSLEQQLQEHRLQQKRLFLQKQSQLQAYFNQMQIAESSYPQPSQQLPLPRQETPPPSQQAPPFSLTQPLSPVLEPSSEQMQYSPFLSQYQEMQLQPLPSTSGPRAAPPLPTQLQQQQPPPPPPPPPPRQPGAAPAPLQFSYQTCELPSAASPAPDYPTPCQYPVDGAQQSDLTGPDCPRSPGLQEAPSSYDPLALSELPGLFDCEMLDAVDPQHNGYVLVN
Sequence of ERK2 (P28482 whole entry): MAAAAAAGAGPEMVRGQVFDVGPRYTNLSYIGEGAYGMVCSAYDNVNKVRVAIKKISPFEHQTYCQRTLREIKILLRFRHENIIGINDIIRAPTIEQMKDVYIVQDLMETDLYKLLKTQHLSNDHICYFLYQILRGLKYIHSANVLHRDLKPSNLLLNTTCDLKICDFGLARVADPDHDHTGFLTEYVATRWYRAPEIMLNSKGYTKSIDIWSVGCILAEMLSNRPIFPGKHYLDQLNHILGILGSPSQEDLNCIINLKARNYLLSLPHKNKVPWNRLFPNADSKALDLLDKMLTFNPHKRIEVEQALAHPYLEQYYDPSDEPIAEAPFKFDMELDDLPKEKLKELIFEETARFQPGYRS

In the case of `COc1ccc(Cl)c(S(=O)(=O)Nc2ccc(-c3nc(OC[C@H]4CNCCO4)c4c(C)n[nH]c4n3)cc2)c1` [290-R, reference compound], the remaining activity at 1 µM stood at 102% at BRSK2; 109% on ERK2; 105% on MST2; 49% at PKB alpha; 15% at PKD1; 91% on SIK2. Moreover, the remaining activity at 1 µM on TESK1 came out at 77%.

As for `Cc1ccc(F)c(S(=O)(=O)Nc2ccc(-c3nc(OC[C@H]4CNCCO4)c4cn[nH]c4n3)cc2)c1` [308-R, reference compound], the remaining activity at 1 µM on BRSK2 turned out to be 82%; on ERK2, 110%; at MST2, 86%; at PKB alpha, 96%; at PKD1, 37%; at SIK2, 55%. Also, the remaining activity at 1 µM at TESK1 stood at 69%.

Regarding `Cc1ccc(F)c(S(=O)(=O)Nc2ccc(-c3nc(OC[C@H]4CN(CCCCCCOCCOCCOCC(=O)N[C@H](C(=O)N5C[C@H](O)C[C@H]5C(=O)NCc5ccc(-c6scnc6C)cc5)C(C)(C)C)CCO4)c4cn[nH]c4n3)cc2)c1` [SGK3-PROTAC1], the remaining activity at 1 µM at BRSK2 (1 µM) amounted to 97%; at ERK2 (1 µM), 104%; at MST2 (1 µM), 112%; on PKB alpha (1 µM), 105%; on PKD1 (1 µM) it was 94%; at SIK2 (1 µM), 95%. Further, the remaining activity at 1 µM on TESK1 (1 µM) worked out at 122%.

Regarding `Cc1ccc(F)c(S(=O)(=O)Nc2ccc(-c3nc(OC[C@H]4CN(CCCCCCOCCOCCOCC(=O)N[C@H](C(=O)N5C[C@@H](O)C[C@H]5C(=O)NCc5ccc(-c6scnc6C)cc5)C(C)(C)C)CCO4)c4cn[nH]c4n3)cc2)c1` [cisSGK3-PROTAC1], the remaining activity at 1 µM on BRSK2 (1 µM) came to 101%; at ERK2 (1 µM), 95%; on MST2 (1 µM), 100%; on PKB alpha (1 µM), 117%; at PKD1 (1 µM), 92%; on SIK2 (1 µM) it was 94%. At TESK1 (1 µM), the remaining activity at 1 µM worked out at 120%.
